From patent US20180353445A1, “METHODS AND COMPOSITIONS RELATING TO PROTEASOME INHIBITOR RESISTANCE” (Whitehead Institute for Biomedical Research, priority 2017, published 2018)

Experiments:
[1] = target: T1, cysteine desulfurase (NFS1-ISD11-Acp)2 (SDA) (Homo sapiens, UniProt Q9Y697); test: Cysteine desulfurase assay (DTT as the reductant); type: biochemical
T1 construct: made in house
Excerpt: Fe—S clusters are generated from sulfur extracted from cysteine by the iron sulfur-cluster (ISC) core complex (NFS1-ISD11-Acp-ISCU)2 and iron. A reductant (FDX1 or FDX2) is required for Fc-S cluster biosynthesis (Lill and Muhlenhoff, 2006; Py and Barras, 2010) (FIG. 53A). To investigate the effect of elesclomol on mitochondrial Fe—S cluster biosynthesis, we utilized in vitro Fe—S cluster assembly assays. […] As further confirmation, we examined the effect of elesclomol on electron transfer from reduced FDX1 to the ISC core complex upon the addition of cysteine.
Cysteine desulfurase assay—The protein samples used in the nisteine desulfurase assay and Fe—S cluster assembly experiments were prepared in an anaerobic chamber (Coy Laboratory) with samples buffer-exchanged extensively prior to the experiments with anaerobic buffer containing 20 mM HEPES at pH 7.6 and 150 mM NaCl (HN buffer). The reaction volumes in all the experiments were kept to […]. […]
The cysteine desulfurase assay reactions (300 μL in HN buffer) contained 10 μM SDA. […] The quenched reaction was incubated for 15 min at room temperature, and then the absorbance at 670 nm was measured and used to estimate the amount of sulfide by comparison to a standard curve obtained from known concentrations of Na2S.

K562 cells = test: K562 viability and cell proliferation (relative cell number count), incl. FDX1 KO cells; type: cell-based, human; conditions: FDX1-null cell line versus non-targeting control sgRNA
Excerpt: Despite its use in clinical trials on a limited number of malignancies, the elesclomol mechanism of action remains unclear. We therefore undertook a genetic approach to identify its direct target and to define cellular pathways that modulate the sensitivity of cancer cells to elesclomol-induced toxicity. […] We measured the relative abundance of each sgRNA in the compound-treated K562 cells at the beginning and end of the culture period. For each gene, we calculated its score as the mean log2 fold-change in abundance of all sgRNAs targeting the gene. […]
Viability and cell proliferation assays—Relative cell number count protocol—The viability of K562 cells was conducted by seeding cells at 250,000 cells/mL in 6-well plates of RPMI. […] Viable cell numbers were counted using countess (Invitrogen) every 2-3 days and cells were reseeded at 250,000 cells/mL in 6-well plates of RPMI to continue growth.
The viability of FDX1 KO K562 cells and AAVS1 KO and WT controls was examined by plating 100,000 cells/mL in 6-well cells in RPMI media (without glucose containing dialyzed serum) with either 10 mM glucose or 10 mM galactose. Viable cell numbers were counted every day using countess (Invitrogen).

MM.1S tumors = test: MM.1S luciferase multiple myeloma model in SCID mice; type: in vivo, mouse; conditions: elesclomol 28mg/kg with bortezomib 0.25mg/kg
Method: FIGS. 54A-54D: Inhibiting the glycolysis-OXPHOS shift with elesclomol is beneficial to proteasome inhibitor treatment in a mouse model of multiple myeloma. (FIG. 54A) provides a schematic of the experimental outline. Mice were injected with MM .'S luciferase expressing cells. Upon tumor formation as judged by BLI signal intensity, treatment with elesclomol (28mg/kg), bortezomib (0.25mg/kg) or the combination (Combo) was initiated (day 0). At day 15, elesclomol was added to the treatment of one of the aroups that had received only bortezomib from day 0 to day 15 (combo-delayed group). […] N=5 per aroup. *** p<0.001.
FIGS. 60A-60B: Inhibiting the glycolysis-OXPHOS shift, with elesclomol is beneficial to proteasome inhibitor treatment in a mouse model of multiple myeloma.

T1 sequence (Q9Y697 56-457): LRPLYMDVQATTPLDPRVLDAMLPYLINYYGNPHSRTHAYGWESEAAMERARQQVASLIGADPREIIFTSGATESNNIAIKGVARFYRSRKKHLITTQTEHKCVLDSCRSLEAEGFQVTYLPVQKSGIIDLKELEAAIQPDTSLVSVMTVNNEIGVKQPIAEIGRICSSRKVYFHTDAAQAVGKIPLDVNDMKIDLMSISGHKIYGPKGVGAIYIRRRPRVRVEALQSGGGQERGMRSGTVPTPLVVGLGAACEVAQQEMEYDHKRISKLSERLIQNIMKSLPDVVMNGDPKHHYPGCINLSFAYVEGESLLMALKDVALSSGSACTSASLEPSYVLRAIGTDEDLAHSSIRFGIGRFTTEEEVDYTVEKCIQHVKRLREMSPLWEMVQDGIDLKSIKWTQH
T1 sequence (P0A6A8 2-78, further chain): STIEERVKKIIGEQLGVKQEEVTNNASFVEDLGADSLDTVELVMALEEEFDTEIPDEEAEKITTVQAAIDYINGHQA
T1 sequence (Q9HD34 whole entry, further chain): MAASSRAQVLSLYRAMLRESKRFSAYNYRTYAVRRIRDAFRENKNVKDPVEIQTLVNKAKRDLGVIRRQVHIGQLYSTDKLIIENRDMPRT

## CN(NC(=O)CC(=O)NN(C)C(=S)c1ccccc1)C(=S)c1ccccc1 [elesclomol]
[1]
  effect on cysteine desulfurase activity: no inhibitory effect
K562 cells
  effect of loss of FDX1 protein on sensitivity: confers relative resistance
MM.1S tumors
  effect on proteasome inhibitor treatment in a mouse model of multiple myeloma: beneficial
